What all share (format): in vivo
Assay [1] deals with green peach aphid (Myzus persicae). In words: Test B: control of green peach aphid on radish plant, contact and/or systemic. The settings on record: 144 h, assessed after 6 days. The text has this: For evaluating control of green peach aphid (Myzus persicae) through contact and/or systemic means, the test unit consisted of a small open container with a 12-15-day-old radish plant inside. This was pre-infested by placing on a leaf of the test plant 30-40 aphids on a piece of leaf excised from a culture plant (cut-leaf method). The aphids moved onto the test plant as the leaf piece desiccated. After pre-infestation, the soil of the test unit was covered with a layer of sand.
Test compounds were formulated and sprayed at 250, 50 and/or 10 ppm as described for Test A. The applications were replicated three times. After spraying of the formulated test compound, each test unit was allowed to dry for 1 h and then a black, screened cap was placed on top. The test units were held for 6 days in a growth chamber at 19-21° C. and 50-70% relative humidity. Each test unit was then visually assessed for insect mortality.

Assay [2] relates to rice green leafhopper (Nephotettix virescens). In words: Test G: control of rice green leafhopper on rice plant. As to conditions: 120 h, assessed after 5 days, read-out: control efficacy: mortality. As to the method:
For evaluating control of rice green leafhopper (Nephotettix virescens) through contact and/or systemic means, the test unit consisted of a plastic pot containing a 13-cm-tall rice plant covered with steel wire mesh (50 mesh) supported by a wire frame. A small amount of sand was added to form a good seal between the bottom of the wire mesh, the soil surface and the top edge of the plastic pot.
Test compounds were formulated and sprayed at 50, 10 and/or 2 ppm, and the tests were replicated three times in a manner similar to the one described for Test A. After spraying, the test units were allowed to dry for 2 h before they were post-infested with 10 green leafhoppers (3rd instar nymphs, 7-9 days post-hatch). After 5 days, each test unit was visually assessed for insect mortality.

Assay [3] relates to cotton melon aphid (Aphis gossypii). In words: Test C: control of cotton melon aphid on cotton plant, contact and/or systemic. The source says: For evaluating control of cotton melon aphid (Aphis gossypii) through contact and/or systemic means, the test unit consisted of a small open container with a 6-7-day-old cotton plant inside. This was pre-infested with 30-40 insects on a piece of leaf according to the cut-leaf method described for Test B, and the soil of the test unit was covered with a layer of sand.
Test compounds were formulated and sprayed at 250 and/or 50 ppm as described for Test B. The applications were replicated three times. After spraying, the test units were maintained in a growth chamber and then visually rated as described for […].

Assay [4] relates to Rice plants (indica cultivar ‘Swarna’). In words: Test N: harvest yield of rice crop outdoors, two foliar applications, Bargarh. As to conditions: applied twice, Nilaparvata lugens level high, controls 620 kg/ha. The procedure:
(§1) To evaluate the effect of application of a compound of the invention on the vigor of rice crops grown under outdoor conditions, Tests 1 through 0 were conducted. “a.i.” refers to the amount of active ingredient applied.
Rice plants (indica cultivar ‘Swarna’) were transplanted into flooded 4 m×3 m test plots of clay loam soil in the Bargarh district, Orissa, India, during the rainy season, and grown using local agronomic practices. After 70 days, aqueous mixtures of Compound 3 were applied to the foliage of the rice plants at 12.5, 25 or 50 g a.i./ha in a spray volume of 400 L/ha using a backpack sprayer. Plots of unsprayed rice plants were used as controls. Each treatment and control was replicated three times, and the plots were arranged in a randomized complete block design. At the time of application of Compound 3, the pest level of rice brown planthopper (Nilaparvata lugens) was high, i.e. much above the level considered economically significant. 14 days after the first treatment, the foliar applications of aqueous mixtures of Compound 3 were repeated at the same application rates in a spray volume of 400 L/ha.
Harvest yields from the crops treated with 12.5, 25 and 50 g a.i./ha of Compound 3 were 3190, 3660 and 4220 kg/ha, respectively, compared to 620 kg/ha from the untreated controls.

Assay [5] relates to Rice plants (indica cultivar ‘JAYA’). The assay is described as follows: Test K: vigor, height and panicle length of rice crop outdoors, Gujarat. As to conditions: for crop vigor (visual rating, 0 to 200% scale, untreated = 100%): 32 days after application, Nilaparvata lugens level moderate; for average height of rice plants / average panicle length of rice plants: 45 days after application; for average height of rice plants: untreated 0.78 m; for average panicle length of rice plants: untreated 22.4 cm. As to the method:
as §1
Rice plants (indica cultivar ‘JAYA’) were transplanted into flooded 6 m×5 m test plots of clay loam soil under shade cloth in the State of Gujarat, India during the hot season before monsoon arrival, and grown using local agronomic practices. Accordingly, after 44 days from transplanting, all rice plants in this test were sprayed with an aqueous mixture containing 30 g a.i./ha of cypermethrin and 100 g a.i./ha of picoxystrobin. After 53 days from transplanting, aqueous mixtures of Compound 3 were applied to the foliage of the rice plants at 6.25, 12.5, 25 or 50 g a.i./ha in a spray volume of 500 L/ha using a backpack sprayer. Plots of unsprayed rice plants were used as controls. Each treatment and control was replicated three times, and the plots were arranged in a randomized complete block design. At the time of application of Compound 3, the pest level of rice brown planthopper (Nilaparvata lugens) was moderate, but still above the level considered economically significant.
At 45 days after application, the height and panicle length of the rice plants were measured. Plant height was determined by measuring length from vertically extended longest leaf tip to soil surface. Panicle length was measured similarly. The average height of rice plants treated with 6.25, 12.5, 25 and 50 g a.i./ha of Compound 3 was 0.94, 0.92, 0.92 and 0.99 m, respectively, compared to 0.78 m for untreated control plants. The average panicle length of rice plants treated with 6.25, 12.5, 25 and 50 g a.i./ha of Compound 3 was 23.8, 23.7, 24.9 and 24.6 cm, respectively, compared to 22.4 cm for untreated control plants.

The term mortality denotes the percentage killed.

The structures appear in SMILES notation. Counter-ions that a name gives are not always drawn. Where only a bound is given, the exact number is not on record here.

Take `O=c1c(-c2cccc(C(F)(F)F)c2)c([O-])[n+](Cc2cncnc2)c2ccccn12` [Compound 3, 2-hydroxy-4-oxo-1-(5-pyrimidinylmethyl)-3-[3-(trifluoromethyl)phenyl]-4H-pyrido[1,2-a]pyrimidinium inner salt]: the mortality at 50 ppm in assay [1] (sprayed at 50 ppm), in assay [2] (sprayed at 50 ppm) and in assay [3] (sprayed at 50 ppm) was at least 80% throughout. Besides, the mortality at 250 ppm in assay [1] (sprayed at 250 ppm) and in assay [3] (sprayed at 250 ppm) was at least 80% in each case. Moreover, the mortality at 2 ppm in assay [2] (sprayed at 2 ppm) was at least 80%. Moreover, in assay [2] (sprayed at 10 ppm), the mortality at 10 ppm is at least 80%. Also, the harvest yield in assay [4] (12.5 g a.i./ha foliar) turned out to be 3190 kg/ha; in assay [4] (25 g a.i./ha foliar), 3660 kg/ha; in assay [4] (50 g a.i./ha foliar), 4220 kg/ha. Besides, the “crop vigor (visual rating, 0 to 200% scale, untreated = 100%)” value amounted to 115% in assay [5] (6.25 g a.i./ha foliar), 113% in assay [5] (12.5 g a.i./ha foliar), 122% in assay [5] (25 g a.i./ha foliar) and 115% in assay [5] (50 g a.i./ha foliar). The “average height of rice plants” value in assay [5] (6.25 g a.i./ha) turned out to be 0.94 m; in assay [5] (12.5 g a.i./ha), 0.92 m; in assay [5] (25 g a.i./ha), 0.92 m; in assay [5] (50 g a.i./ha), 0.99 m. The “average panicle length of rice plants” value in assay [5] (6.25 g a.i./ha) came to 23.8 cm; in assay [5] (12.5 g a.i./ha), 23.7 cm; in assay [5] (25 g a.i./ha), 24.9 cm; in assay [5] (50 g a.i./ha), 24.6 cm.

The values are drawn from patent publication US8895738B2, “Mesoionic pyrido [1, 2-A] pyrimidine pesticides” (E I du Pont de Nemours and Company, priority 2010, dated 2014).
